IC50, MIC and MIC90 data for three compounds are collected here from ChEMBL document CHEMBL4373693, “Virtual Screening Approach and Investigation of Structure-Activity Relationships To Discover Novel Bacterial Topoisomerase Inhibitors Targeting Gram-Positive and Gram-Negative Pathogens” (J Med Chem, 2019).

For test [1], the target named is DNA gyrase (Escherichia coli, UniProt P0AES4+P0AES6). The test is described as follows: Inhibition of Escherichia coli DNA gyrase. The format is protein-complex assay.
Test [2] concerns the target DNA gyrase (Staphylococcus aureus, UniProt P0A0K8+P20831). The test is described as follows: Inhibition of Staphylococcus aureus DNA gyrase. The format is protein-complex assay.
A further test has as its system Escherichia coli. In words: Antibacterial activity against Escherichia coli. The format is functional.
Test [3] concerns the target DNA topoisomerase 4 subunit A (Staphylococcus aureus, UniProt P0C1U9). In words: Inhibition of Staphylococcus aureus DNA topoisomerase 4 subunit ParC assessed as reduction in decatenation of kinetoplast DNA incubated for 60 mins by ethidium bromide staining based gel electrophoresis method.
For test [4], the target named is DNA gyrase subunit A (Escherichia coli K-12, UniProt P0AES4). The test is described as follows: Inhibition of Escherichia coli DNA gyrase A assessed as reduction in enzyme-mediated supercoiling of relaxed pBR322 DNA measured after 60 mins by electrophoresis method.
The target of test [5] is DNA gyrase subunit A (Staphylococcus aureus, UniProt P20831). The test is described as follows: Inhibition of Staphylococcus aureus DNA gyrase A assessed as reduction in enzyme-mediated supercoiling of relaxed pBR322 DNA measured after 60 mins by electrophoresis method.
The target of test [6] is T1, DNA topoisomerase 4 subunit A (Escherichia coli K-12, UniProt P0AFI2).
T1 sequence (P0AFI2 whole entry): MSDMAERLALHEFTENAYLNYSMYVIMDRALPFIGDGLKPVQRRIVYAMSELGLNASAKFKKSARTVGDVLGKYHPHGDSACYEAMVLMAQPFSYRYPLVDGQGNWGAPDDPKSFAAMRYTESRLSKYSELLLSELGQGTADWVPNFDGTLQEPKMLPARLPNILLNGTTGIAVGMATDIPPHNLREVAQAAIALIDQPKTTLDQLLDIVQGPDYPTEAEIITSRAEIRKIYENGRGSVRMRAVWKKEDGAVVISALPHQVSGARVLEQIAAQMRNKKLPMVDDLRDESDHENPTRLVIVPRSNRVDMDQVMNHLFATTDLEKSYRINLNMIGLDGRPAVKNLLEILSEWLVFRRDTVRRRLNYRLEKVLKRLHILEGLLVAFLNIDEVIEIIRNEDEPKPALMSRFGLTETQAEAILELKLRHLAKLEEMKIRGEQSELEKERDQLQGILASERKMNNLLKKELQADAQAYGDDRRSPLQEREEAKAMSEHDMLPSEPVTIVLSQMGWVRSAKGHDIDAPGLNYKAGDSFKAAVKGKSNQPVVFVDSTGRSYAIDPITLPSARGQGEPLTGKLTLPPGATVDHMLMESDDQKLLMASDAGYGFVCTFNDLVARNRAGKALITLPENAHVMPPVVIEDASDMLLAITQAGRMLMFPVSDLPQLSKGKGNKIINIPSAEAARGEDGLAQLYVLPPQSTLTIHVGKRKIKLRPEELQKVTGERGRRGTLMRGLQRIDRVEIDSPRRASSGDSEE
In words: Inhibition of Escherichia coli DNA topoisomerase 4 subunit ParC assessed as reduction in decatenation of kinetoplast DNA incubated for 60 mins by ethidium bromide staining based gel electrophoresis method.

Test [7] in a line: Inhibition of Escherichia coli DNA topoisomerase 4.
A further test has as its target Topoisomerase IV (Staphylococcus aureus, UniProt P0C1S7+P0C1U9). The test is described as follows: Inhibition of Staphylococcus aureus DNA topoisomerase 4. Format: protein-complex assay.
A further test deals with Staphylococcus aureus. In words: Antibacterial activity against Staphylococcus aureus. Format: functional.

In brackets after ≈: the same amount, converted by molar mass.

Sequence of DNA gyrase (Staphylococcus aureus, UniProt P0A0K8+P20831) (P0A0K8 whole entry): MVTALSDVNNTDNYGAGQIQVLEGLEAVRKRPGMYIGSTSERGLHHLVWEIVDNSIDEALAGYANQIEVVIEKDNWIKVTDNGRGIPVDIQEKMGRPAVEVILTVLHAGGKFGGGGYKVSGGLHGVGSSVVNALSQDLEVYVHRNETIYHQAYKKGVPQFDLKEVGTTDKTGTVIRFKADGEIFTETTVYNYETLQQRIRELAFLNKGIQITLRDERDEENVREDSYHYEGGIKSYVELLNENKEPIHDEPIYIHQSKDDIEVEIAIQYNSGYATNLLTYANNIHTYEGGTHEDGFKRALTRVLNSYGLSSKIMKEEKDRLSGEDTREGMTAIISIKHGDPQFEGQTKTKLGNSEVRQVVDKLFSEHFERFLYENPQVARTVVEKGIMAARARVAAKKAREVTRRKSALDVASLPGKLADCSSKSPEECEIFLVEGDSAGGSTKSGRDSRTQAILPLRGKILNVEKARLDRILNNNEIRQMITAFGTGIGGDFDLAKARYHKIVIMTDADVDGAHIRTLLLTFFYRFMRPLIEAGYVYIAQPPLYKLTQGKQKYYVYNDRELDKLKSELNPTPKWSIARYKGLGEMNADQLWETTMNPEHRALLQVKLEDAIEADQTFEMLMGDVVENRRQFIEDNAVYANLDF
Sequence of DNA gyrase (Staphylococcus aureus, UniProt P0A0K8+P20831) (P20831 whole entry): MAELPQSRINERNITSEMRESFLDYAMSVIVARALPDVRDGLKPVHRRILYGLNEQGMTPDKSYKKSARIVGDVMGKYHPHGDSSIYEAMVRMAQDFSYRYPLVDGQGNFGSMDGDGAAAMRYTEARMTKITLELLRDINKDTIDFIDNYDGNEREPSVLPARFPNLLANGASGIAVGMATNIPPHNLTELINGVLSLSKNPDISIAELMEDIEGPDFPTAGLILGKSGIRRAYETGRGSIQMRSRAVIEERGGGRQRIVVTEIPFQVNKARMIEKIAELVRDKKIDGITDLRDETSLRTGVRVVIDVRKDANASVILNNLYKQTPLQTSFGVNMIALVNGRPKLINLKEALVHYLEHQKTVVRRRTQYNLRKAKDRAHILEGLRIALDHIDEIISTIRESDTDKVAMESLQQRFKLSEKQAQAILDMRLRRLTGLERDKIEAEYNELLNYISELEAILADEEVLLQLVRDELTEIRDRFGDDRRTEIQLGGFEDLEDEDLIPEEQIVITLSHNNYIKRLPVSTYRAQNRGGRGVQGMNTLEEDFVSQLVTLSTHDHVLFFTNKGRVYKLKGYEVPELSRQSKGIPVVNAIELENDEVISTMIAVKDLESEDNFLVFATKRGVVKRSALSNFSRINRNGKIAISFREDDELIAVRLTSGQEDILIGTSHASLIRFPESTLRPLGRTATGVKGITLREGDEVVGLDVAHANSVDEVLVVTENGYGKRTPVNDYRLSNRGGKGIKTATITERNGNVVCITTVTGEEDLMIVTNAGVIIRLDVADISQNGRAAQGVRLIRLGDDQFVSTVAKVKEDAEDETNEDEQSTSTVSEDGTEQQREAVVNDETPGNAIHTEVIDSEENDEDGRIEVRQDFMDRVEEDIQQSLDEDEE
Sequence of DNA gyrase subunit A (Staphylococcus aureus, UniProt P20831) (P20831 whole entry): as above
Sequence of DNA gyrase subunit A (Escherichia coli K-12, UniProt P0AES4) (P0AES4 whole entry): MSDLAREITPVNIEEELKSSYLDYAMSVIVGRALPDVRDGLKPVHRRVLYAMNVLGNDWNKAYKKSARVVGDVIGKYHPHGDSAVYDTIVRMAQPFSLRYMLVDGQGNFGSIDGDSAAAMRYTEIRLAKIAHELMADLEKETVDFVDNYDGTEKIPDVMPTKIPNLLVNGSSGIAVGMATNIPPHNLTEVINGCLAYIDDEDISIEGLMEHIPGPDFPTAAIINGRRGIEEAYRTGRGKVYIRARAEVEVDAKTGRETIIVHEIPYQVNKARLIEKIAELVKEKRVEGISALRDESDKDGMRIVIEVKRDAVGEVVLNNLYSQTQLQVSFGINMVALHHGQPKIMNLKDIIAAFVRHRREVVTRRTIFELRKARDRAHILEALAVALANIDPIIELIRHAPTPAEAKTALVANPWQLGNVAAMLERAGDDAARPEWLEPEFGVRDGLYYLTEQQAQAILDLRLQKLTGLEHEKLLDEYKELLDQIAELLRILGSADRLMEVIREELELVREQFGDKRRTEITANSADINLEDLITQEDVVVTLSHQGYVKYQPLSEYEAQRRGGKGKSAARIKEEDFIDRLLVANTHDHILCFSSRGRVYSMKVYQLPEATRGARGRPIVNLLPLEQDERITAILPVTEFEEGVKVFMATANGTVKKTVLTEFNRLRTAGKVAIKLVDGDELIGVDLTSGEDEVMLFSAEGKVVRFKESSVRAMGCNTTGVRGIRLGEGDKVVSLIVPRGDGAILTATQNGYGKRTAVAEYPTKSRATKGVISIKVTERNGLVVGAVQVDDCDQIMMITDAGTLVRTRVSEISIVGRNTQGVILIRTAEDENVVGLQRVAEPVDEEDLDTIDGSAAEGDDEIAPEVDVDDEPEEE
Sequence of Topoisomerase IV (P0C1U9 whole entry): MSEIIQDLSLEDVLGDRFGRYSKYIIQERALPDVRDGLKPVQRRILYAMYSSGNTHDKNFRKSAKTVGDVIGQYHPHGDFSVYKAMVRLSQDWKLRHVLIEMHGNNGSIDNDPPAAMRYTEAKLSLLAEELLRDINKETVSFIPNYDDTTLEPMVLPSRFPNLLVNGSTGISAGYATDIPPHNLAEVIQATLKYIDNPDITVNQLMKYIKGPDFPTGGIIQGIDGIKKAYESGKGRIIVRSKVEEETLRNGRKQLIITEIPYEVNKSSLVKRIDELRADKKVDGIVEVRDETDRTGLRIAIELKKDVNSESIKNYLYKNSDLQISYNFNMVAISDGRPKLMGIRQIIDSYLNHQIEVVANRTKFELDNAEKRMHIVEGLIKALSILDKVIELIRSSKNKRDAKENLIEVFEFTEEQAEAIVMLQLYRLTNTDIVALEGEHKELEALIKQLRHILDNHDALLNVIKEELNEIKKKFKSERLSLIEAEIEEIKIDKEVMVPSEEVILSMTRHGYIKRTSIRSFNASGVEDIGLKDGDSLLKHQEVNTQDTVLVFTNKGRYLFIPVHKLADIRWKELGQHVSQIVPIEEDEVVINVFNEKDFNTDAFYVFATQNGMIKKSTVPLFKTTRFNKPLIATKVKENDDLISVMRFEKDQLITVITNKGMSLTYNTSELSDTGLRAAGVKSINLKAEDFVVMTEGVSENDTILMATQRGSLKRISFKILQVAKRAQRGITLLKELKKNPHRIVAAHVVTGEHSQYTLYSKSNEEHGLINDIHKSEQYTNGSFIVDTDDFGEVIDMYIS
Sequence of Topoisomerase IV (P0C1S7 whole entry): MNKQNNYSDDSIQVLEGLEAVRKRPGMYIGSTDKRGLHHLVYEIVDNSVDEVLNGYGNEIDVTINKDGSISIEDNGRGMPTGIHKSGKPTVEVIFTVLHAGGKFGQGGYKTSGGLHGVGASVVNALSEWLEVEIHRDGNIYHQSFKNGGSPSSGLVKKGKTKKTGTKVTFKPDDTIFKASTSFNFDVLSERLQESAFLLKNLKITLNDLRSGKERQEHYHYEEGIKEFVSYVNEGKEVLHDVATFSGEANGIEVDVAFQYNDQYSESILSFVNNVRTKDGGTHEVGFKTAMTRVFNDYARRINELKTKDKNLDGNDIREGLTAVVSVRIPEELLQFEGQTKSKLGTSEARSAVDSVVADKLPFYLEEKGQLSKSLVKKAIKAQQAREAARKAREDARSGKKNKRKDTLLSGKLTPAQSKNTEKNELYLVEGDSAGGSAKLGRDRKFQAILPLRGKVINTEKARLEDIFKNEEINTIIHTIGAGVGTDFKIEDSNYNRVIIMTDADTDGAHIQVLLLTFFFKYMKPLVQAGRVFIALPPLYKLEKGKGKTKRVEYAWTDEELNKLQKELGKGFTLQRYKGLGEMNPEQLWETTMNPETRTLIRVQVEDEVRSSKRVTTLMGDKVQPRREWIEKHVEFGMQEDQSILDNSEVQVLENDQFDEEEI

Consider `COc1ccc2ncc(C#N)c(CCN3CCC(NCc4cc5c(cn4)OCS5)CC3)c2c1`, for which the results for the IC50 against DNA gyrase [1] and on DNA gyrase [2] were 100 nM and 14 nM, respectively. The compound also came in with an MIC against Escherichia coli of 0.06 µg/mL (≈ 0.13 µM).
For `COc1ccc2ncc(F)c([C@@H](O)CC[C@@H]3CCN(CCSc4cccs4)C[C@@H]3C(=O)O)c2c1`, the IC50 was 18000 nM in [3], 11000 nM on DNA gyrase subunit A [4], 1000 nM at DNA gyrase subunit A [5] and 2200 nM in test [6].
Turning to `O=C1COc2ccc(N3C[C@H](CCCN[C@@H]4Cn5c(=O)ccc6ccc(F)c4c65)OC3=O)nc2N1`, the IC50 against DNA gyrase [1] was determined as 125 nM; against DNA gyrase [2] it was 8 nM; in test [7] it was 30 nM; on Topoisomerase IV, 2000 nM. Moreover, the MIC90 against Staphylococcus aureus is 0.016 µg/mL (≈ 0.0334 µM); with Escherichia coli it was 0.5 µg/mL (≈ 1.04 µM).

One may read the IC50 as the concentration that gives 50% inhibition. By MIC is commonly meant the lowest concentration found to suppress growth. A word on the MIC90: it is an inhibitory concentration at the 90% level, which refers to growth in some studies and to a panel of isolates in others. Low readings indicate higher susceptibility, high ones lower susceptibility.
